Test system: Shay rats (pylorus-ligated, gastric ulcers in the forestomach)
Test: Anti-ulcer activity on Shay rats
Format: in vivo
Conditions: male SD rats, 300 mg/kg orally, 16 hours
Protocol: Anti-ulcer activity on Shay rats:
Male SD rats (180-200 g) were deprived of food for 48 hours and had free access to water. Under ether anesthesia the abdomen of each rat was incised and the pylorus ligated. Concurrently the test complex was orally administered and the abdomen was closed. The animals were killed 16 hours later by an overdose, and the stomach of each rat removed. The stomach was incised along the greater curvature and examined for gastric ulcers developed in the forestomach. The damaged mucosa in shay ulcers was measured under a dissecting microscope (x10) with a square grid, summed, and arbitrarily classified into 5 degrees by an erosion index.

O=S(=O)([O-])OCC(COCC(COS(=O)(=O)[O-])(COS(=O)(=O)[O-])COS(=O)(=O)[O-])(COS(=O)(=O)[O-])COS(=O)(=O)[O-].[Na+].[Na+].[Na+].[Na+].[Na+].[Na+] [Na salt, Sodium salt of sulfuric acid ester of dipentaerythritol]
Erosion Index (mean ± SE): 1.4 ± 0.2
Percent Inhibition (%) (versus control (H2O)): 58.8%

Reference: US4650888A, “Pentaerythritol derivative” (Chugai Seiyaku Kabushiki Kaisha, priority 1984, dated 1987)
